According to PubChem BioAssay AID504758 (National Center for Advancing Translational Sciences (NCATS), 2011):

System: Caco-2 monolayer permeability, A-to-B, LC-MS/MS
Assay: Inhibitors of Cruzain: Caco-2 Permeability Profiling Assay
Conditions: hits give high values
Source text: Chagas Disease is a neglected tropical disease that affects over 16 million people in Latin America. The cysteine protease cruzain is essential for the survival Trypanosoma cruzi, the parasitic agent responsible for Chagas disease. Potential intervention for T. cruzi includes the inhibition of cruzain. This bioassay will summarize the ongoing development of small molecule cruzain inhbitiors. Currently, a screen of ~200k compounds and through extensive follow-up work a probe was identified. To further characterize the probe, it was tested in in vitro ADME assays. This permeability assay predicts the in vivo absorption of the lead across the intestinal lining by using a Caco-2 cell line and measuring the lead's rate of transport into the cytosol. […] NIH Chemical Genomics Center [NCGC] NIH Molecular Libraries Probe Production Centers Network [MLPCN] MLSCN Grant: DA024891-01 PI Name: Dr. Brian Shoichet; University of California, San Francisco
1. Buffer Preparation: Prepare 1M HEPES: add 23.83g HEPES to 100ml of 0.85% NaCl Prepare HBSS+ buffer: add 12.8ml of 1M HEPES in 0.85% NaCl to 500ml HBSS buffer. 2. Take out the compounds from -80 degrees C, ultrasonicate or pre-warm for a few minutes to thaw the compounds. 3. […] The T0, LY and T90, LY plates are read by FlexStation 3 at excitation of 485 nm and emission of 535 nm to determine LY permeability. […]

apparent permeability Papp: 4.1 10^-6 cm/s
SMILES: Cc1ccc(OCCn2c(CCNC(=O)C3CCCCC3)nc3ccccc32)cc1
